# Data reported in patent publication US12551576B2, “Chemiluminescent probes” (The General Hospital Corporation, priority 2020, dated 2026).
# “Also recorded” adds a separate entry of the source.
# What was measured:
# Transthyretin = Transthyretin (Homo sapiens, UniProt P02766); assay: Aβ aggregates incubated with transthyretin
# Aβs = Aβs (Homo sapiens, UniProt P05067); assay: In vivo chemiluminescence imaging with ADLumin-1; set-up: species or system 5×FAD mice
# Description: The IVIS Spectrum animal imaging system (PerkinElmer) was used for in vivo imaging. Images were acquired with open filter or specific emission filters. […] Chemiluminescent signals from the eyes were recorded at 0 and 45 min after i.v. injection of the probe. Sequence images were captured at 15 min after probe injection with the following parameters: sequence filter from 500 nm to 840 nm with an interval of 20 nm; Exposure time is 30 s, FOV=D. […] To evaluate the imaging results, an ROI was drawn around the brain or the eye region. Student t-test was used to calculate P values.
# [1] = biological target: Aβ plaques and cerebral amyloid angiopathy (CAA) (Homo sapiens, UniProt P05067)
# Sequence of Aβ plaques and cerebral amyloid angiopathy (CAA) (P05067 672-713 limits assumed): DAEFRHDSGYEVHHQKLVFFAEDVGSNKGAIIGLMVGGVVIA
# Aβ40 aggregates = Aβ40 aggregates (Homo sapiens, UniProt P05067); assay: Binding affinity of ADLumin-1 with Aβs (fluorescence titration); details: ADLumin-1 250 nM, Aβ40 aggregates 0 to 8 μM, fluorescence at 515 nm
# Sequence of Aβ40 aggregates (P05067 672-711 limits assumed): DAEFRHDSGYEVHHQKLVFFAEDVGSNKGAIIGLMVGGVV
# Tau = assay: Chemiluminescence with misfoldon aggregates in PBS (Tau); format: binding; details: ADLumin-1 2.5 μM, Tau aggregates 2.5 μM
# Apolipoprotein A-I (APO) = Apolipoprotein A-I (APO) (Homo sapiens, UniProt P02647); assay: Aβ aggregates incubated with APO
# Sequence of Apolipoprotein A-I (APO) (P02647 25-267): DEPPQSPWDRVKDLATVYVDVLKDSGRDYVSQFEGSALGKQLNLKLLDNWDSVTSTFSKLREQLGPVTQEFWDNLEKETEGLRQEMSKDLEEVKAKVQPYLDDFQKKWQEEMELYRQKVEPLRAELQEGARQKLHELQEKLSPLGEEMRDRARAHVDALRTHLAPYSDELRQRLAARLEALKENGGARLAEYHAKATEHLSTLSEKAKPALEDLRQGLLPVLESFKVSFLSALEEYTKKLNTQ
# [2] = ROS sensitivity of ADLumin-1; format: physicochemical; details: H2O2, ClO4−, TBHP, KO2; compared to O2 bubbling
# Description: (§1) Oxygen and ROS sensitivity of ADLumin-1: A 100.0 μL DMSO solution of ADLumin-1 (200.0 μM) was added to a well in a 96-well plate. One group was bubbled with oxygen for 5 seconds at different time points, and the control group was sealed without bubbling. Once the bubbling was over, the plate was subjected to chemiluminescence intensity recording with the IVIS system with the open filter setting (500 nm-840 nm). For ROS tests, A PBS solution (240 μL) was incubated in an Eppendorf tube. To each of above tubes, different ROS (H2O2 30 μL, […] 30 μL, TBHP 30 μL and KO2 30 μL) was added, respectively. Then, a solution of ADLumin-1 in DMSO (30 μL, 250.0 μM) was added. Finally, 100.0 μL of the resulting solution was transferred into a well of 96-well plate, and triplicated samples were prepared. Chemiluminescence images were obtained with an IVIS system under the open filter (500 nm-840 nm).
# [3] = biological target: alpha-synuclein in human serum (Homo sapiens, UniProt P37840); assay: Chemiluminescence of synuclein incubated with human serum
# insulin = biological target: T1, insulin (Homo sapiens, UniProt P01308); assay: Chemiluminescence with misfoldon aggregates in PBS (insulin); format: binding
# T1 construct: immunoglobulin G (IgG), proinsulin, insulin, and apolipoprotein A-I (APO)
# T1 sequence (P01308 25-54 limits assumed, species assumed): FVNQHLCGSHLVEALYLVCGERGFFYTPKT
# T1 sequence (P01308 90-110 limits assumed, species assumed): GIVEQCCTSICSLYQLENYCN
# [4] = Oxygen sensitivity of ADLumin-1; format: physicochemical
# Description: as §1
# Aβ plaques [5] = biological target: T2, Aβ plaques (Homo sapiens, UniProt P05067); assay: Ex vivo histological study; format: in vivo, 5×FAD mouse; details: mouse sacrificed after two-photon imaging
# T2 sequence (P05067 672-713 limits assumed): as the sequence (P05067 672-713 limits assumed) above
# Description: The fresh brain tissue was fixed in 4% formaldehyde for 24 hours and transferred into 30% sucrose at 4° C. until the tissue sunk. Then the tissue was embedded in an OCT block, which was sectioned into 25-μm slice with a cryostat. Then the slice was covered with FluoroShield mounting medium (Abcam).
# Aβ plaques [6] = biological target: T2, Aβ plaques; assay: In vitro histological study (brain slice staining); details: 5×FAD mouse brain slice incubated with ADLumin-1
# Description: In vitro histological study: a fresh brain tissue from a 24-month old APP/PS1 mouse was fixed in 4% formaldehyde for 24 hours and transferred into 30% sucrose at 4° C. until the tissue sunk. Then the tissue was embedded in OCT with gradual cooling over dry ice. […] Then the slice was covered with FluoroShield mounting medium (Abcam) and sealed with nail polish.
# [7] = two-photon imaging, 5×FAD mouse, i.v. 4 mg/kg
# Sequence of Aβs (P05067 672-713 limits assumed): as above
smiles,measurement,setting,value
"Cc1nc2c[nH]c(/C=C/C=C/c3ccc(N(C)C)cc3)cn-2c1=O [ADLumin-1, 6-((1E,3E)-4-(4-(dimethylamino)phenyl)buta-1,3-dien-1-yl)-2-methylimidazo[1,2-a]pyrazin-3(7H)-one]",intensity Aβ/transthyretin group vs control group,Transthyretin,higher intensity
same,chemiluminescence signal 5×FAD vs age-matched wild-type mice,"Aβs; 5-month-old mice, summary statement",1.80 fold
same,brain chemiluminescence signal difference 5×FAD vs WT,Aβs; 640 nm filter,1.7 fold
same,brain chemiluminescence signal difference 5×FAD vs WT,"Aβs; 15 minutes after i.v. injection, open filter",1.7 fold
same,brain chemiluminescence signal difference 5×FAD vs WT,"Aβs; 30 minutes after i.v. injection, open filter",1.8 fold
same,chemiluminescence signals from eyes 5×FAD vs WT,"Aβs; mouse, in vivo",1.6 fold
same,chemiluminescence signals from noses 5×FAD vs WT,"Aβs; mouse, in vivo",1.7 fold
same,SNR of CAAs,[1]; [7],~26.0
same,SNR of plaques,[1]; [7],about 17.0
same,time to peak intensity in CAA,[1]; two-photon time-course imaging,≤ 1 min
same,time to peak intensity in plaques,[1]; two-photon time-course imaging,5 min
same,Kd,Aβ40 aggregates,2.1 µM
same,largest chemiluminescence difference with aggregates,Tau,7.02 fold
same,intensity Aβ/APO group vs control group,Apolipoprotein A-I (APO),higher intensity
same,chemiluminescence response towards ROS species,[2],no significant changes; also recorded: considerably low; also recorded: relatively small
same,chemiluminescence difference vs control group,[3],4.30 fold
same,largest chemiluminescence difference with aggregates,"insulin; ADLumin-1 2.5 μM, insulin aggregates 2.5 μM, PBS",10.8 fold
same,signal decay T½,insulin; with insulin aggregates,> 1 h
same,response time to O2,[4],within seconds
same,luminescence increase after stirring,[4]; ADLumin-1 DMSO solution,3.4 fold
same,chemiluminescence intensity increase after O2 bubbling,"[4]; DMSO solution, after first 5 seconds bubbling",27 fold
same,brightness of plaques in brain slides,Aβ plaques [5],considerably bright
same,signal to noise ratio (SNR) of plaques,Aβ plaques [6],2.93
